Key:
[1] = molecular target: Human immunodeficiency virus type 1 protease (Human immunodeficiency virus 1, UniProt Q72874); assay: Ability to inhibit purified recombinant HIV-1 protease.
[2] = In vitro toxic concentration against HIV-1 IIIb H9-infected cells; type: cell-based; details: human, HIV-1 IIIb-infected H9 cells; read-out: TC50 (the source's name)
Cathepsin E = molecular target: T1, Cathepsin E (Homo sapiens, UniProt P14091); assay: Ability to inhibit the human Native cathepsin E aspartic protease enzyme
T1 sequence (P14091 whole entry): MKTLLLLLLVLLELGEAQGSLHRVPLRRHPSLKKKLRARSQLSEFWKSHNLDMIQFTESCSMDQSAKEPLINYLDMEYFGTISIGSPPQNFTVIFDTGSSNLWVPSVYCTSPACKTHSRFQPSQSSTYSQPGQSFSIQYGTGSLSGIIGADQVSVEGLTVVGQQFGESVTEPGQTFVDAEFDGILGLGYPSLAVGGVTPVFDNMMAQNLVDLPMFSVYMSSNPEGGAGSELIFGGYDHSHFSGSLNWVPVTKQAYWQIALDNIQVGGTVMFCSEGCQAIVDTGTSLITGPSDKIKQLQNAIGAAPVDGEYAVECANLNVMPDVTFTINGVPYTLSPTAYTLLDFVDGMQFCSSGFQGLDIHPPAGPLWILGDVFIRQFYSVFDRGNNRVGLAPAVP

Cathepsin D = Cathepsin D (Homo sapiens, UniProt P07339); assay: Ability to inhibit the human Native cathepsin D aspartic protease enzyme
Cathepsin D, sequence (P07339 65-162 limits assumed): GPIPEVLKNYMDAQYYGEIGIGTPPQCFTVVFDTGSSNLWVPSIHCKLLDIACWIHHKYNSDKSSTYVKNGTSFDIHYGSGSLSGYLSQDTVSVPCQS
Cathepsin D, sequence (P07339 169-412 limits assumed): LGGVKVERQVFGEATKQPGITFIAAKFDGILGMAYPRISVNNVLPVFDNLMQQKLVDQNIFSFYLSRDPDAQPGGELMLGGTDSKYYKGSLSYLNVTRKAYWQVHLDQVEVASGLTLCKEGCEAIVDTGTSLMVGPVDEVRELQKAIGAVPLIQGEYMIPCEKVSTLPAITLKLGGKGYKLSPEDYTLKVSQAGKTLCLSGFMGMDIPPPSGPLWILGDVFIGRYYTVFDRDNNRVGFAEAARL

Renin = molecular target: T2, Renin (Homo sapiens, UniProt P00797); assay: Ability to inhibit the human recombinant renin aspartic protease enzyme
T2 sequence (P00797 whole entry): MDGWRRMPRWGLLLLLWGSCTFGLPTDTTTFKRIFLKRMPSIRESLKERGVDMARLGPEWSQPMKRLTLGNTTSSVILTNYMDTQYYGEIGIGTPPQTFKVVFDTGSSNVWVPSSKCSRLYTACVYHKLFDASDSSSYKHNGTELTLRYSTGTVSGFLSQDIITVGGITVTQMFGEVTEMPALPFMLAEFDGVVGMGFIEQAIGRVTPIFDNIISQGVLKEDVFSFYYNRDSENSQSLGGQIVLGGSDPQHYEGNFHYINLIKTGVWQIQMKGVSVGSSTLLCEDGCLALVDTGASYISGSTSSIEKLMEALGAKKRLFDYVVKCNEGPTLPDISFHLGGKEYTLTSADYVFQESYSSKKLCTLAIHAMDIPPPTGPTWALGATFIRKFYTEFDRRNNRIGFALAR

| IC50 [1] [nM] | SMILES | CC50 [2] [nM] | further results |
| --- | --- | --- | --- |
| 541 | O=c1cc(-c2ccccc2)oc(O)c1C(CC1CCCC1)SC1CCCCC1 (stereo unspecified) | – | – |
| – | O=c1cc(-c2ccccc2)oc(O)c1C(CC1CC1)SC1CCCC1 (stereo unspecified) | – | Ki [1]: 0.069 nM |
| 84 | O=c1cc(-c2ccccc2)oc(O)c1C(CC1CC1)SCc1ccccc1 (stereo unspecified) | 68000 | IC50 (Cathepsin E): > 40000 nM; IC50 (Cathepsin D): > 40000 nM; IC50 (Renin): > 10000 nM |
| 2450 | O=c1cc(-c2ccccc2)oc(O)c1C(Sc1ccc2ccccc2c1)c1ccccc1 (stereo unspecified) | – | – |
| 780 | O=c1cc(-c2ccccc2)oc(O)c1C(Sc1ccccc1)c1ccccc1 (stereo unspecified) | – | – |
| 2440 | O=c1cc(-c2ccccc2)oc(O)c1C(Sc1ccccc1)C1CCCCC1 (stereo unspecified) | – | – |
| 147 | O=c1cc(-c2ccccc2)oc(O)c1C(CC1CC1)SC1CCCCC1 (stereo unspecified) | 67000 | – |
| 7820 | O=c1cc(-c2ccccc2)oc(O)c1C(Sc1ccccc1)c1ccc2ccccc2c1 (stereo unspecified) | – | – |
| 225 | O=c1cc(-c2ccccc2)oc(O)c1C(SC1CCCC1)C1CCCC1 (stereo unspecified) | 70000 | – |
| 480 | O=c1cc(-c2ccccc2)oc(O)c1C(SC1CCCCC1)c1ccccc1 (stereo unspecified) | – | – |
| 84300 | O=c1cc(-c2ccccc2)oc(O)c1CSc1ccccc1 | – | – |

| SMILES | IC50 [1] [nM] | CC50 [2] [nM] | further results |
| --- | --- | --- | --- |
| CC(C)CC(SC1CCCC1)c1c(O)cc(-c2ccccc2)oc1=O (stereo unspecified) | 58 | 28000 | IC50 (Cathepsin E): > 40000 nM; IC50 (Cathepsin D): > 40000 nM; IC50 (Renin): > 10000 nM |
| CC(C)CC(Sc1ccccc1)c1c(O)cc(-c2ccccc2)oc1=O (stereo unspecified) | 410 | – | – |
| CC(C)(C)CC(SC1CCCCC1)c1c(O)cc(-c2ccccc2)oc1=O (stereo unspecified) | 300 | – | – |
| CC(C)CCC(Sc1ccccc1)c1c(O)cc(-c2ccccc2)oc1=O (stereo unspecified) | 390 | – | – |
| CC(C)CC(SCc1ccccc1)c1c(O)cc(-c2ccccc2)oc1=O (stereo unspecified) | 260 | 67000 | – |
| O=c1cc(-c2ccccc2)oc(O)c1C(SCc1ccccc1)c1ccccc1 (stereo unspecified) | 480 | 61000 | – |
| CC(C)CC(SCC1CCCCC1)c1c(O)cc(-c2ccccc2)oc1=O (stereo unspecified) | 848 | – | – |
| CC(C)CC(SC1CCCCC1)c1c(O)cc(-c2ccccc2)oc1=O (stereo unspecified) | 320 | – | – |

— ChEMBL document CHEMBL1128706, “Nonpeptidic potent HIV-1 protease inhibitors: (4-hydroxy-6-phenyl-2-oxo-2H- pyran-3-yl)thiomethanes that span P1-P2' subsites in a unique mode of active site binding” (J Med Chem, 1995)
